Assay results reported in PMC11696576, “Next generation thiazolyl ketone inhibitors of cytosolic phospholipase A2 α for targeted cancer therapy” (Nature Communications, 2025).

Test system: CCRF-CEM cells
Assay: RNA-Seq differential gene expression
Type: cell-based, human
Conditions: for log2(fold change): Upregulated
From the text: Given our findings that the sensitivity to AVX420 was dependent on increased intracellular ROS, we hypothesized that activation of the integrated stress response (ISR) by oxidative damage may be the cause of cell death. The ISR converges on deactivation of the eukaryotic translation initiation factor 2 alpha (eIF2α) to globally suppress translation, with the exception of selected genes (e.g., activating transcription factor (ATF) 4) which activate robust transcriptional changes to restore homeostasis and promote survival or, when oxidative damage is sustained, to initiate programmed cell death. To investigate this, we used a combination of RNA-SEQ and Ribosomal RNA-SEQ (Ribo-SEQ) to measure the global transcriptional and translational response to AVX420 in CCRF-CEM cells. […] Translational effects were determined by calculating the proportion of total transcript associated with the ribosome (ribosomal occupancy (RO)). […] As a positive control we treated cells for 1 hour with the dual mTOR inhibitor Torin-1, which reduced the RO of 20 mRNAs.
CCRF-CEM cells seeded at 200,000 viable cells/mL were treated with AVX420 (0.5 μM) or DMSO (0.1%) and harvested after 1 hour, 6 h, or 16 h. Torin-1 (100 nM) treatment was harvested after 1 h. The flasks were placed on ice and the cell suspensions were transferred to 50 mL conical tubes for centrifugation (405 × g, 4 °C, 5 min). […] The cells were collected and centrifuged at 405 x g for 5 min at 4 °C. The supernatant was discarded, and the cells were suspended in 1 mL of DPBS before centrifugation at 405 x g for 5 min at 4 °C. Resulting cell pellets were snap-frozen in liquid nitrogen and stored at −80 °C. RNA-Seq and ribosome-associated RNA(Ribo)-Seq was performed by Eclipsebio (eclipsebio.com). Protocols are available in the Supplemental Methods section. […]
correction using the Benjamini-Hochberg correction to control the rate of false-posi-tives. Gene sets with false discovery rate <20% were considered significant. […]
RNA-Seq and ribosome-associated RNA(Ribo)-Seq
RNA-Seq and ribosome-associated RNA(Ribo)-Seq was performed by Eclipsebio (eclipsebio.com). The cytosolic fraction of crosslinked cell pellets was isolated and RNA quality and quantity was assessed before 250 ng of the isolated RNA was used to build 3’ RNA-Seq libraries. 10 µg RNA was used for immunoprecipitation (IP) for Ribo-SEQ analysis. Non-crosslinked RNA was removed from the IP through multiple wash steps and the remaining RNA was released via proteinase digestion. RNA from both sources was fragmented and libraries were generated from the poly(A) tails. Li-braries were sequenced on a NextSeq 2 000. After sequencing, samples were pro-cessed with Eclipsebio’s proprietary analysis pipeline (v1). Unique molecular identifi-ers (UMIs) were pruned from read sequences using umitools (v1.1.1). Next 3' adapt-ers were trimmed from reads using cutadapt (v3.2). Reads were then mapped to a cus-tom, curated database of repetitive elements and rRNA sequences. All non -repeat mapped reads were mapped to the genome hg38 using STAR (v2.7.7a) and PCR du-plicates were removed using umi_tools (v1.1.1). Gene coverage was cal culated using Eclipsebio’s proprietary feature counting algorithm and ribosome occupancy was cal-culated by dividing coverage in the ribosome -associated (IP) library by the RNA -Seq library. Differentially expressed and occupied genes were identified using D ESeq2.
Significant differential expression was defined using a cutoff on p.value < 0.01 (after multiple testing adjustment, "padj" metric) and requiring the fold change in gene cov-erage to be greater than 1 or less than -1 (log2 scale). Significance of the ribosomal occupancy (RO) difference was determined by extending DESeq2 models to include RO fold change as an interaction between the experimental condition and the library type. Genes with a RO log2 (fold change) > 1 or < -1 and an adjusted p-value < 0.01 were considered significant. […]

SMILES: CCCCCCCOc1ccc(OCC(=O)c2nc(C(=O)OC)cs2)cc1 [GK420]
- log2(fold change) (ADM2, 6 h): 1.49
- log2(fold change) (ATF3, 6 h): 1.05
- changes in gene expression (CCRF-CEM, 0.5 μM, 1 hour): No significant changes
- log2FC ADM2 (CCRF-CEM, 0.5 μM, 6 h): 1.49
- log2FC ATF3 (CCRF-CEM, 0.5 μM, 6 h): 1.05
- log2FC CHAC1 (CCRF-CEM, 0.5 μM, 6 h): 2.25
- log2FC DDIT3 (CCRF-CEM, 0.5 μM, 6 h): 1.15
- log2FC ENSG00000260498 (CCRF-CEM, 0.5 μM, 6 h): 1.44
- log2FC GPT2 (CCRF-CEM, 0.5 μM, 6 h): 1.24
- log2FC L3MBTL2-AS1 (CCRF-CEM, 0.5 μM, 6 h): 2.13
- log2FC LINC-PINT (CCRF-CEM, 0.5 μM, 6 h): 1.34
- log2FC LY9 (CCRF-CEM, 0.5 μM, 6 h): 1.05
- log2FC SESN2 (CCRF-CEM, 0.5 μM, 6 h): 1.59
- log2FC SLC6A9 (CCRF-CEM, 0.5 μM, 6 h): 1.25
- log2FC SLC7A11 (CCRF-CEM, 0.5 μM, 6 h): 1.57
- log2FC ULBP1 (CCRF-CEM, 0.5 μM, 6 h): 1.2
- log2FC VLDLR (CCRF-CEM, 0.5 μM, 6 h): 1.27
- log2FC VLDLR-AS1 (CCRF-CEM, 0.5 μM, 6 h): 1.02
- log2FC YAP1 (CCRF-CEM, 0.5 μM, 6 h): 1.04
- number of genes upregulated (CCRF-CEM, 0.5 μM, 6 h): 16
- number of differentially expressed genes (DEGs) (CCRF-CEM, 0.5 μM, 16 h): 82
- log2FoldChange ADM2 (CCRF-CEM, 0.5 μM, 16 hours): 2.31
- log2FoldChange AQP3 (CCRF-CEM, 0.5 μM, 16 hours): -1.1
- log2FoldChange B4GALNT1 (CCRF-CEM, 0.5 μM, 16 hours): 2.37
- log2FoldChange CAMKK1 (CCRF-CEM, 0.5 μM, 16 hours): -1.18
- log2FoldChange CAMKV (CCRF-CEM, 0.5 μM, 16 hours): -1.07
- log2FoldChange CHAC1 (CCRF-CEM, 0.5 μM, 16 hours): 3.51
- log2FoldChange DUSP2 (CCRF-CEM, 0.5 μM, 16 hours): -1.04
- log2FoldChange ENSG00000260498 (CCRF-CEM, 0.5 μM, 16 hours): 2.28
- log2FoldChange GPT2 (CCRF-CEM, 0.5 μM, 16 hours): 3.48
- log2FoldChange HRG (CCRF-CEM, 0.5 μM, 16 hours): 2.92
- log2FoldChange IFRD1 (CCRF-CEM, 0.5 μM, 16 hours): 2.08
- log2FoldChange L3MBTL2-AS1 (CCRF-CEM, 0.5 μM, 16 hours): 3.01
- log2FoldChange LINC02970 (CCRF-CEM, 0.5 μM, 16 hours): 3.49
- log2FoldChange LRRTM1 (CCRF-CEM, 0.5 μM, 16 hours): -1.11
- log2FoldChange MIR22HG (CCRF-CEM, 0.5 μM, 16 hours): 2.58
- log2FoldChange MYT1 (CCRF-CEM, 0.5 μM, 16 hours): -1.13
- log2FoldChange NDUFA4L2 (CCRF-CEM, 0.5 μM, 16 hours): 2.19
- log2FoldChange NMRAL2P (CCRF-CEM, 0.5 μM, 16 hours): 2.89
- log2FoldChange NOL3 (CCRF-CEM, 0.5 μM, 16 hours): 2.29
- log2FoldChange OSGIN1 (CCRF-CEM, 0.5 μM, 16 hours): 3.08
- log2FoldChange PNMA1 (CCRF-CEM, 0.5 μM, 16 hours): -1.02
- log2FoldChange RAG1 (CCRF-CEM, 0.5 μM, 16 hours): -1.12
- log2FoldChange RFPL1S (CCRF-CEM, 0.5 μM, 16 hours): 2.61
- log2FoldChange RPL23AP42 (CCRF-CEM, 0.5 μM, 16 hours): -2.03
- log2FoldChange SESN2 (CCRF-CEM, 0.5 μM, 16 hours): 2.53
- log2FoldChange SLC6A9 (CCRF-CEM, 0.5 μM, 16 hours): 2.93
- log2FoldChange SLC7A11 (CCRF-CEM, 0.5 μM, 16 hours): 3.42
- log2FoldChange THOC3 (CCRF-CEM, 0.5 μM, 16 hours): -1.74
- log2FoldChange TM6SF1 (CCRF-CEM, 0.5 μM, 16 hours): 2.49
- log2FoldChange VLDLR-AS1 (CCRF-CEM, 0.5 μM, 16 hours): 2.44
- log2(fold change) (CHAC1, 6 h): 2.25
- log2(fold change) (DDIT3, 6 h): 1.15
- log2(fold change) (ENSG00000260498, 6 h): 1.44
- log2(fold change) (GPT2, 6 h): 1.24
- log2(fold change) (L3MBTL2-AS1, 6 h): 2.13
- log2(fold change) (LINC-PINT, 6 h): 1.34
- log2(fold change) (LY9, 6 h): 1.05
- log2(fold change) (SESN2, 6 h): 1.59
- log2(fold change) (SLC6A9, 6 h): 1.25
- log2(fold change) (SLC7A11, 6 h): 1.57
- log2(fold change) (ULBP1, 6 h): 1.2
- log2(fold change) (VLDLR, 6 h): 1.27
- log2(fold change) (VLDLR-AS1, 6 h): 1.02
- log2(fold change) (YAP1, 6 h): 1.04
